pEC50: −log10 of the molar value.
Each compound was assayed on Tacaribe virus (TRVL 11573) (assay: microbe, parasite or virus in culture). Conditions: Mammarenavirus tacaribeense, Vero, read-out: Tacaribe EC50.
Assay type: cell-based
`CC(NC(=O)NNS(=O)(=O)c1c(Cl)cccc1Cl)(C(F)(F)F)C(F)(F)F` [Example 44, N-2-(1,1,1,3,3,3-Hexafluoro-2-methylpropyl)-2-[(2,6-dichlorophenyl)sulfonyl]hydrazine-1-carboxamide] was tested, and the pEC50 was 5.30 to 6.00. With `CC(NC(=O)NNS(=O)(=O)c1cccc(Br)c1)(C(F)(F)F)C(F)(F)F` [Example 9, N-2-(1,1,1,3,3,3-Hexafluoro-2-methylpropyl)-2-[(3-bromophenyl)sulfonyl)hydrazine-1-carboxamide] the pEC50 was greater than 6.30. `Cc1ccc(S(=O)(=O)N(C)NC(=O)NC(C)(C(F)(F)F)C(F)(F)F)cc1` [Example 43, N-2-(1,1,1,3,3,3-Hexafluoro-2-methylpropyl)-2-[(4-methylphenyl)sulfonyl]-2-methylhydrazine-1-carboxamide] showed a pEC50 of 5.30 to 6.00. In the case of `CC(NC(=O)NNS(=O)(=O)c1ccc(OC(F)(F)F)cc1)(C(F)(F)F)C(F)(F)F` [Example 15, N-2-(1,1,1,3,3,3-Hexafluoro-2-methylpropyl)-2-[(4-trifluoromethoxyphenyl)sulfonyl] hydrazine-1-carboxamide], the pEC50 was 6.00 to 6.30. In the case of `CC(NC(=O)Nc1cccc2c1OC(F)(F)O2)(C(F)(F)F)C(F)(F)F` [Example 84, 1-(2,2-Difluorobenzo[1,3]dioxol-4-yl)-3-(2,2,2-trifluoro-1-methyl-1-trifluoromethylethyl)-urea], the pEC50 was 5.30 to 6.00. Compound `COc1cc(NC(=O)NC(C)(C(F)(F)F)C(F)(F)F)cc(OC)c1OC` [Example 55, 1-(2,2,2-trifluoro-1-methyl-1-trifluoromethylethyl)-3-(3,4,5-trimethoxyphenyl)-urea] has a pEC50 of 6.00 to 6.30. `CC(NC(=O)NNS(=O)(=O)c1ccc(OC(F)F)cc1)(C(F)(F)F)C(F)(F)F` [Example 13, N-2-(1,1,1,3,3,3-Hexafluoro-2-methylpropyl)-2-[(4-difluoromethoxyphenyl)sulfonyl] hydrazine-1-carboxamide] showed a pEC50 greater than 6.30. `COc1ccc(OC)c(S(=O)(=O)NNC(=O)NC(C)(C(F)(F)F)C(F)(F)F)c1` [Example 7, N-2-(1,1,1,3,3,3-Hexafluoro-2 methylpropyl)-2-[(3,6-dimethoxyphenyl)sulfonyl] hydrazine-1-carboxamide] showed a pEC50 greater than 6.30. With `Cc1cccc(NC(=O)NC(C)(C(F)(F)F)C(F)(F)F)c1` [Example 86, 1-(3-Methylphenyl)-3-(2,2,2-trifluoro-1-methyl-1-trifluoromethylethyl)-urea] the pEC50 was less than 5.30. `CC(NC(=O)Nc1ccccc1S(N)(=O)=O)(C(F)(F)F)C(F)(F)F` [Example 66, 2-[3-(1,1-Bis-trifluoromethylethyl)-ureido]benzenesulfonamide] gave a pEC50 of 5.30 to 6.00. `CC(NC(=O)N1CCN(c2ccccc2)CC1)(C(F)(F)F)C(F)(F)F` [Example 51, 4-Phenylpiperazine-1-(2,2,2-trifluoro-1-methyl-1-trifluoromethylethyl)-carboxamide] gave a pEC50 greater than 6.30. In the case of `CC(NC(=O)Nc1cccc(C#N)c1)(C(F)(F)F)C(F)(F)F` [Example 76, 1-(3-Cyanophenyl)-3-(2,2,2-trifluoro-1-methyl-1-trifluoromethylethyl)-urea], the pEC50 was 5.30 to 6.00. For `CC(NC(=O)Nc1cccc(OC(F)(F)F)c1)(C(F)(F)F)C(F)(F)F` [Example 68, 1-(3-Trifluoromethoxyphenyl)-3-(2,2,2-trifluoro-1-methyl-1-trifluoromethylethyl)-urea], the pEC50 was 5.30 to 6.00. For `CC(NC(=O)Nc1ccccc1-c1ccccc1)(C(F)(F)F)C(F)(F)F` [Example 61], the pEC50 was 5.30 to 6.00. With `CC(NC(=O)NNS(=O)(=O)c1ccc([N+](=O)[O-])cc1)(C(F)(F)F)C(F)(F)F` [Example 48, N-2-(1,1,1,3,3,3-Hexafluoro-2-methylpropyl)-2-[(4-nitrophenyl)sulfonyl]hydrazine-1-carboxamide] the pEC50 was less than 5.30. For `CC(NC(=O)N1CCCC1)(C(F)(F)F)C(F)(F)F` [Example 91, 1-Pyrrolidinyl-1-(2,2,2-trifluoro-1-methyl-1-trifluoromethylethyl)-carboxamide], the pEC50 was less than 5.30. For `COc1ccc(Cl)cc1S(=O)(=O)NNC(=O)NC(C)(C(F)(F)F)C(F)(F)F` [Example 6, N-2-(1,1,1,3,3,3-Hexafluoro-2-methylpropyl)-2-[(3-chloro-6-methoxyphenyl)sulfonyl]hydrazine-1-carboxamide], the pEC50 was greater than 6.30. `CC(NC(=O)NNS(=O)(=O)c1cccc(C(F)(F)F)c1)(C(F)(F)F)C(F)(F)F` [Example 19] showed a pEC50 of 6.00 to 6.30. In the case of `COc1ccc(S(=O)(=O)NNC(=O)NC(C)(C(F)(F)F)C(F)(F)F)cc1` [Example 12, N-2-(1,1,1,3,3,3-Hexafluoro-2-methylpropyl)-2-[(4-methylphenyl)sulfonyl]hydrazine-1-carboxamide], the pEC50 was greater than 6.30. Compound `CC(NC(=O)NNS(=O)(=O)c1ccc(-c2ccccc2)cc1)(C(F)(F)F)C(F)(F)F` [Example 1] has a pEC50 greater than 6.30. Work on `CC(NC(=O)NNS(=O)(=O)c1c(C(F)(F)F)cccc1C(F)(F)F)(C(F)(F)F)C(F)(F)F` [Example 45, N-2-(1,1,1,3,3,3-Hexafluoro-2-methylpropyl)-2-[(2,6-ditrifluoromethylphenyl)sulfonyl] hydrazine-1-carboxamide] yielded a pEC50 of 5.30 to 6.00. Compound `CC(NC(=O)NNS(=O)(=O)c1ccc(Br)cc1)(C(F)(F)F)C(F)(F)F` [Example 10, N-2-(1,1,1,3,3,3-Hexafluoro-2-methylpropyl)-2-[(4-bromophenyl)sulfonyl]hydrazine-1-carboxamide] has a pEC50 greater than 6.30. `COc1cccc(S(=O)(=O)NNC(=O)NC(C)(C(F)(F)F)C(F)(F)F)c1` [Example 17, N-2-(1,1,1,3,3,3-Hexafluoro-2-methylpropyl)-2-[(3-methoxyphenyl)sulfonyl]hydrazine-1-carboxamide] showed a pEC50 of 6.00 to 6.30. For `CC(NC(=O)Nc1ccc(Cl)cc1)(C(F)(F)F)C(F)(F)F` [Example 85, 1-(4-Chlorophenyl)-3-(2,2,2-trifluoro-1-methyl-1-trifluoromethylethyl)-urea], the pEC50 was less than 5.30. In the case of `CC(NC(=O)NNS(=O)(=O)c1ccc(C(F)(F)F)cc1)(C(F)(F)F)C(F)(F)F` [Example 23, N-2-(1,1,1,3,3,3-Hexafluoro-2-methylpropyl)-2-[(4-trifluoromethylphenyl)sulfonyl] hydrazine-1-carboxamide], the pEC50 was 6.00 to 6.30. `CC(NC(=O)NNS(=O)(=O)c1ccc(F)cc1)(C(F)(F)F)C(F)(F)F` [Example 16, N-2-(1,1,1,3,3,3-Hexafluoro-2-methylpropyl)-2-[(4-fluoro-phenyl)sulfonyl]hydrazine-1-carboxamide] gave a pEC50 of 6.00 to 6.30. In the case of `CC(NC(=O)Nc1ccccc1OC(F)(F)F)(C(F)(F)F)C(F)(F)F` [Example 96, 1-(2-Trifluoromethoxyphenyl)-3-(2,2,2-trifluoro-1-methyl-1-trifluoromethylethyl)-urea], the pEC50 was less than 5.30. For `CN1CCOc2cc(S(=O)(=O)NNC(=O)NC(C)(C(F)(F)F)C(F)(F)F)ccc21` [Example 3, N-2-(1,1,1,3,3,3-Hexafluoro-2-methylpropyl)-2-[7-(4-methyl-3,4-dihydro-2H-benzo[1,4]oxazinyl)sulfonyl] hydrazine-1-carboxamide], the pEC50 was greater than 6.30. `Cc1ccc(S(=O)(=O)NNC(=O)N(C)C(C)(C(F)(F)F)C(F)(F)F)cc1` [Example 46, N-2-(1,1,1,3,3,3-Hexafluoro-2-methylpropyl)-2-[(4-methylphenyl)sulfonyl]hydrazine-1-methylcarboxamide] showed a pEC50 of less than 5.30. With `CC(NC(=O)NNS(=O)(=O)c1ccc(-c2csnn2)cc1)(C(F)(F)F)C(F)(F)F` [Example 8, N-2-(1,1,1,3,3,3-Hexafluoro-2-methylpropyl)-2-[(4-(4-[1,2,3]thiadiazolyl)phenyl)sulfonyl] hydrazine-1-carboxamide] the pEC50 was greater than 6.30. With `CC(NC(=O)Nc1ccc(F)cc1)(C(F)(F)F)C(F)(F)F` [Example 92, 1-(4-Fluorophenyl)-3-(2,2,2-trifluoro-1-methyl-1-trifluoromethylethyl)-urea] the pEC50 was less than 5.30. Work on `Cn1cnc(S(=O)(=O)NNC(=O)NC(C)(C(F)(F)F)C(F)(F)F)c1` [Example 49, N-2-(1,1,1,3,3,3-Hexafluoro-2-methylpropyl)-2-[(1-methylimidazol-4-yl)sulfonyl]hydrazine-1-carboxamide] yielded a pEC50 of less than 5.30. `CC(NC(=O)Nc1cccc2c1OC(F)(F)C(F)(F)O2)(C(F)(F)F)C(F)(F)F` [Example 67, 1-(2,2,3,3-Tetrafluoro-2,3-dihydrobenzo[1,4]dioxin-5-yl)-3-(2,2,2-trifluoro-1-methyl-1-trifluoromethylethyl)-urea] showed a pEC50 of 5.30 to 6.00. For `CC(NC(=O)Nc1c(Br)cccc1Br)(C(F)(F)F)C(F)(F)F` [Example 88, 1-(2,6-Dibromophenyl)-3-(2,2,2-trifluoro-1-methyl-1-trifluoromethylethyl)-urea], the pEC50 was less than 5.30. Compound `Cc1noc(C)c1S(=O)(=O)NNC(=O)NC(C)(C(F)(F)F)C(F)(F)F` [Example 47, N-2-(1,1,1,3,3,3-Hexafluoro-2-methylpropyl)-2-[(3,5-dimethylisoxazol-5-yl)sulfonyl]hydrazine-1-carboxamide] has a pEC50 of less than 5.30. With `CC(NC(=O)Nc1ccc(C#N)cc1)(C(F)(F)F)C(F)(F)F` [Example 83, 1-(4-Cyanophenyl)-3-(2,2,2-trifluoro-1-methyl-1-trifluoromethylethyl)-urea] the pEC50 was 5.30 to 6.00. Compound `CC(NC(=O)Nc1ccccc1F)(C(F)(F)F)C(F)(F)F` [Example 72, 1-(2-fluorophenyl)-3-(2,2,2-trifluoro-1-methyl-1-trifluoromethylethyl)-urea] has a pEC50 of 5.30 to 6.00. For `CC(NC(=O)NNS(=O)(=O)c1ccccc1OC(F)(F)F)(C(F)(F)F)C(F)(F)F` [Example 28, N-2-(1,1,1,3,3,3-Hexafluoro-2-methylpropyl)-2-[(2-trifluoromethoxyphenyl)sulfonyl] hydrazine-1-carboxamide], the pEC50 was 5.30 to 6.00. With `CC(NC(=O)Nc1ccccc1OC(F)(F)C(F)F)(C(F)(F)F)C(F)(F)F` [Example 78, 1-(2-(1,1,2,2-Tetrafluoroethoxy)phenyl)-3-(2,2,2-trifluoro-1-methyl-1-trifluoromethylethyl)-urea] the pEC50 was 5.30 to 6.00. `Cc1ccc(NC(=O)NC(C)(C(F)(F)F)C(F)(F)F)cc1` [Example 90, 1-(4-Methylphenyl)-3-(2,2,2-trifluoro-1-methyl-1-trifluoromethylethyl)-urea] gave a pEC50 of less than 5.30. With `CC(NC(=O)NNS(=O)(=O)c1cccc(F)c1)(C(F)(F)F)C(F)(F)F` [Example 36, N-2-(1,1,1,3,3,3-Hexafluoro-2-methylpropyl)-2-[(3-fluorophenyl)sulfonyl]hydrazine-1-carboxamide] the pEC50 was 5.30 to 6.00.

Source: US8658697B2 (priority 2004, dated 2014)
